In ChEMBL document CHEMBL5543135, “Design and Synthesis of Novel Macrocyclic Derivatives as Potent and Selective Cyclin-Dependent Kinase 7 Inhibitors” (J Med Chem, 2024):

Columns and labels:
[1] = in vitro; settings: mouse, liver microsomes
[2] = in vitro; settings: human, liver microsomes

| Structure (SMILES) | half-life at 1 h, 1 µM [1] [min] | half-life at 1 h, 1 µM [2] [min] |
| --- | --- | --- |
| COC1CCCC2(CCNCC2)CNc2nc(n3ncc(C(C)C)c3n2)NCc2ccccc2OC1 (centres undefined) | 27.7 | 16.9 |
| CC(C)c1cnn2c(NCc3ccccc3)cc(NC[C@H]3CCNC[C@@H]3O)nc12 [CT-7001] | 105 | > 186 |
